In US20150150769A1, “COSMETIC COMPOSITIONS COMPRISING DITERPENOIC ACIDS, E.G. GIBBERELLIC ACIDS” (Cutech S.r.L., priority 2011, published 2015):

Columns and labels:
[1] = system: Human anagen hair follicles; assay: Growth (elongation) of cultured isolated human hair follicles; assay type: cell-based
Experimental: (§1) Human anagen hair follicles were isolated from scalp skin taken from a single donor and transferred for cultivation in sterile 24 well plates using a modified Williams' Medium E. Cultivation took place for nine days, while the experimental treatment of the follicles started 24 hours from the beginning of the cultivation. Hair follicles were selected for the experiments after 18 h of cultivation. Only follicles showing a good vital stage and a growth of not less than 0.2 mm were considered suitable to be maintained in culture. All experimental groups and the control group were prepared by including 12 follicles, plated in 24 well plates at a density of 3 hair follicles (HFs) per well. […] The growth of the hair follicles was studied by performing image analyses on microphotographs. All hair follicles were photographed at day 5 of culture (day 4 of treatment) and then at day 9 of culture (day 8 of treatment).

[2] = system: Human anagen hair follicles; assay: Histological analysis of hair follicles (anagen/catagen stage, dermopapilla morphology); assay type: cell-based; conditions: for Anagen phase / Catagen phase: after 9 days of cultivation
Experimental: as §1
The experiment according to Examples 1 to 3 was terminated after 9 days of cultivation. Subsequently, the hair follicles were subjected to histological analysis by staining with haematossilin and eosin in order to verify the morphological state of the dermopapilla.

Gibberellic acid [Gibberellin]
change of hair follicle growth in comparison to the control group ([1]; Examples 7-8, 1 μg/ml, P<0.001): −30.1%
change of hair follicle growth in comparison to the control group ([1]; Examples 9-10, 1 μg/ml, P<0.001): −27.7%
change of hair follicle growth in comparison to the control group ([1]; Examples 11-12, 1 μg/ml, P<0.01): −20%
reduction of hair growth in comparison to the control group ([1]; Examples 11-12, depending on the treatment dosage (0.1-1.0 μg/ml)): up to 20%

C=C1C[C@]23C[C@@]1(O)CC[C@H]2[C@@]12C=C[C@H](O)[C@@](C)(C(=O)O1)[C@H]2[C@@H]3C(=O)O [Gibberellin, Gibberellic acid]
inhibition at 1 µg/mL ([1]; Homo sapiens, Examples 1-3, 1 μg/ml, P<0.01, read-out: inhibitory action on hair growth in comparison with the untreated sample): 19%
Growth of hair follicles: Elongation performance, Average ([1]; Table 1, Examples 1-3, 0.01 μg/ml, day 9 of culture): 88.2 ± 7.0 percentage of the control group
Growth of hair follicles: Elongation performance, Average ([1]; Table 1, Examples 1-3, 0.1 μg/ml, day 9 of culture): 85.6 ± 5.4 percentage of the control group
Growth of hair follicles: Elongation performance, Average ([1]; Table 1, Examples 1-3, 1.0 μg/ml, day 9 of culture): 80.6 ± 5.4 percentage of the control group
Growth of hair follicles: Elongation performance, Average ([1]; Table 2, Examples 4-6, 0.01 μg/ml, 9 days of cultivation): 81.4 ± 5.9 percentage of the control group
Growth of hair follicles: Elongation performance, Average ([1]; Table 2, Examples 4-6, 0.1 μg/ml, 9 days of cultivation): 89.8 ± 8.0 percentage of the control group
Growth of hair follicles: Elongation performance, Average ([1]; Table 2, Examples 4-6, 1.0 μg/ml, 9 days of cultivation): 82.7 ± 6.6 percentage of the control group
Growth of hair follicles: Elongation performance, Average ([1]; Table 3, Examples 7-8, 0.1 μg/ml, 9 days of cultivation): 76.6 ± 4.3 percentage of the control group
Growth of hair follicles: Elongation performance, Average ([1]; Table 3, Examples 7-8, 1.0 μg/ml, 9 days of cultivation): 69.9 ± 3.2 percentage of the control group
Growth of hair follicles: Elongation performance, Average ([1]; Table 4, Examples 9-10, 0.1 μg/ml, 9 days of cultivation): 77.7 ± 5.8 percentage of the control group
Growth of hair follicles: Elongation performance, Average ([1]; Table 4, Examples 9-10, 1.0 μg/ml, 9 days of cultivation): 72.3 ± 4.9 percentage of the control group
Growth of hair follicles: Elongation performance, Average ([1]; Table 5, Examples 11-12, 0.1 μg/ml, 9 days of cultivation): 91.3 ± 4.7 percentage of the control group
Growth of hair follicles: Elongation performance, Average ([1]; Table 5, Examples 11-12, 1.0 μg/ml, 9 days of cultivation): 79.9 ± 5.9 percentage of the control group
effect on decline of the hair follicles into the catagen phase ([2]; Examples 13-14, 0.1 and 1 μg/ml, result in words): significantly anticipated the decline into the catagen phase
Anagen phase ([2]; Table 6, Example 13, 0.1 μg/ml): 22.2
Catagen phase ([2]; Table 6, Example 13, 0.1 μg/ml): 77.8
Anagen phase ([2]; Table 6, Example 14, 1 μg/ml): 9.1
Catagen phase ([2]; Table 6, Example 14, 1 μg/ml): 90.9
